According to patent publication US20190090458A1, “DEVICE FOR OBTAINING AGE/SIZE-MATCHED NEMATODES AND METHODS OF USE” (University of Alaska, Fairbanks, priority 2017, published 2019):

Key:
[1] = tested on: C. elegans; experiment: Pharyngeal pump rate; assay type: in vivo; conditions: 100 μM FUDR in NGM; days 6 and 8 of adulthood; p<0.001
Description: (§1) The three groups tested were separated by: 1) individual picking, wherein nematodes were selected and transferred manually using a platinum loop; 2) the chemical treatment fluorodeoxyuridine (FUDR), wherein 100 mg/mL FUDR was added to the NGM media to a final concentration of 100 μM to prevent any progeny production, and then the nematodes were transferred every other day to a fresh NGM plate to avoid food depletion; and, 3) the device of Example 1.
The ability of C. elegans' pharyngeal muscles to pump declines with age and is another biomarker of healthspan. To determine if the present filter membrane device influenced the nematodes' pharyngeal pump rate, the three treatment groups were compared on days 2, 4, 6, and 8 of adulthood (n=8 to 10 per group). The grinder movement of the nematode's terminal pharyngeal bulb was visually counted under a stereomicroscope at a 600× final magnification for 1 minute, wherein a statistical analysis with a one-way ANOVA with α=0.05 and Bonferroni post-tests with α=0.05 was performed.

[2] = tested on: C. elegans; experiment: Gentle touch response (anterior and posterior); assay type: in vivo; conditions: 100 μM FUDR in NGM; any day of testing (days 2, 4, 6, 8); p>0.4
Description: as §1
Response to mechanical stimulus is a physiological marker to assess aging or general health; thus, the impact of different transfer methods on both the anterior and the posterior gentle touch responses were tested. Responses to a gentle touch were compared between the three treatment groups, wherein the assay was performed based on the methods described by Calixto et al. Enhanced neuronal RNAi in C. elegans using SID-1. Nature Methods. 7 (7), 554-559 (2010). The anterior and posterior touch response was recorded by gently stroking an eyelash pick perpendicularly across the tail or the head (5× each, alternating head and tail) of the animals. Any movement in the opposite direction of the stroke was scored as 1 point on a scale of 0 to 5 for both the anterior and the posterior response. A statistical analysis with a one-way ANOVA with α=0.05 and Bonferroni post-tests with α=0.05 was conducted using the recorded scored.

[3] = tested on: C. elegans; experiment: Motility assay (motility class scoring); assay type: in vivo; conditions: 100 μM FUDR in NGM; days 2, 4, 6 and 8 of adulthood; p>0.05
Description: as §1
In C. elegans the normal sinusoidal movement (i.e., motility) declines with age and is a marker of overall health. To determine if the present device influenced motility, motility scores were compared for pick, FUDR, and present filter membrane device treatment groups on days 2, 4, 6, and 8 of adulthood. The mobility assay was performed as disclosed by Hendon et al. Stochastic and genetic factors influence tissue-specific decline in ageing C. elegans. Nature. 419 (6909), 808-814 (2002). The nematodes were assigned a motility score and assigned to a class (A, B, or C). Class A individuals move spontaneously in a normal, sinusoidal pattern. Class B individuals move in markedly non-sinusoidal movements and may require prodding to encourage movement. Class C individuals move their head and/or tail in response to prodding but are unable to move across the agar.

[4] = tested on: sod-3::gfp; experiment: sod-3::gfp fluorescent reporter stress response assay; assay type: in vivo, C. elegans; conditions: 100 μM paraquat, positive control; strain CF1553; p<0.05
Description: Three commonly used fluorescent reporter assays were performed to detect potential markers of stress: a DAF-16::GFP translocation into the nuclei of cells in a strain [TJ356-zIs356 (pDAF-16::DAF-16-GFP;rol-6)]; an hsp-16.2 expression [TJ375-gpls 1 (hsp-16.2p::GFP)]; and a sod-3 expression [CF1553-muIs84([pAD76]sod-3p::GFP+rol-6[su1006])]. Henderson, S. T., Johnson, T. E. daf-16 integrates developmental and environmental inputs to mediate aging in the nematode Caenorhabditis elegans. Current Biology. 11 (24), 1975-1980 (2001); Rea, S. L., Wu, D., Cypser, J. R., Vaupel, J. W., Johnson, T. E. A stress-sensitive reporter predicts longevity in isogenic populations of Caenorhabditis elegans. Nature Genetics. 37 (8), 894-898 (2005); and, Libina, N., Berman, J. R., Kenyon, C. […]
At day 3 of adulthood, the nematodes were harvested with an eyelash pick and mounted to a coverslip with 1 μL of a 36% poloxamer 407 surfactant solution to immobilize the nematodes. […] Differences in the fluorescent localization between the three groups was recorded and results compared using an ordinal logistics statistical model in statistical analysis software (DAF-16::GFP assay) and for the hsp-16.2 and the sod-3 expression assays, a one-way ANOVA with α=0.05 and Tukey's post hoc tests with α=0.05 was used to compare the total fluorescence of the head region. […]

Structure (SMILES) | pharyngeal pump rate, FUDR versus picking group [1] | anterior and posterior gentle touch response compared with pick and device groups [2] | motility class distribution compared with pick and device groups [3] | SOD-3 expression (sod-3::gfp fluorescence of head region) versus pick and device groups [4]
O=c1[nH]c(=O)n([C@H]2C[C@H](O)[C@@H](CO)O2)cc1F [FUDR, 5-fluorodeoxyuridine] | significant difference | no statistically significant difference | no difference | 
C[n+]1ccc(-c2cc[n+](C)cc2)cc1 [paraquat] |  |  |  | high expression of sod-3::gfp
